Some test systems named below: EKVX NSCLC; HOP-62 NSCLC; HOP-92 NSCLC; IGROV1 ovarian; NCI-H460 lung; OVCAR-8 ovarian; SK-OV-3 ovarian; SW-620 colon; TK-10 renal; UO-31 renal.
Holding throughout (assay): inhibition of tumour cell growth, NCI panel, 48 h

Where “and” joins values, the source holds several entries; their conditions need not be identical. Equal values may be shown once.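 Growth conditions: 96-well plates. Treatment: test compound, 48 hours, 5 concentrations. Analysis: linear interpolation between bracketing concentrations; unreached endpoints set to highest concentration. GI50 is the concentration that inhibits growth by half. At the TGI there is no net growth.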

These results are taken from PubChem BioAssay (NCI).

Regarding `COc1ccc(/C=c2\sc3nnc(CCC(=O)Nc4cccc(C(F)(F)F)c4)n3c2=O)cc1`, the TGI in the experiment with EKVX NSCLC, with HOP-62 NSCLC, in the experiment on HOP-92 NSCLC, with IGROV1 ovarian, with NCI-H460 lung and in the experiment with OVCAR-8 ovarian was more than 100 µM in each case. For the same molecule, the TGI with SK-OV-3 ovarian, with SW-620 colon, with TK-10 renal and in the experiment on UO-31 renal was more than 100 µM each time.

Take `CC(=O)Nc1c(I)c(C(=O)O)c(I)c(N(C)C(C)=O)c1I`: the GI50 in the experiment with EKVX NSCLC, in the experiment on HOP-62 NSCLC, with HOP-92 NSCLC, with IGROV1 ovarian, in the experiment with NCI-H460 lung and in the experiment with OVCAR-8 ovarian was more than 100 µM in each case. Also, the GI50 with SK-OV-3 ovarian, in the experiment on SW-620 colon, in the experiment on TK-10 renal and in the experiment on UO-31 renal was more than 100 µM throughout. Also, the TGI in the experiment on EKVX NSCLC, in the experiment on HOP-62 NSCLC, in the experiment on HOP-92 NSCLC, in the experiment with IGROV1 ovarian, with NCI-H460 lung and in the experiment with OVCAR-8 ovarian was more than 100 µM throughout. Moreover, the TGI in the experiment with SK-OV-3 ovarian, in the experiment with SW-620 colon, in the experiment on TK-10 renal and in the experiment with UO-31 renal was more than 100 µM throughout.

On to `CN=c1ss/c(=N\C(=S)N(C)C)n1C1CCCCC1`, for which the TGI in the experiment on EKVX NSCLC is more than 31.6 µM; in the experiment on HOP-62 NSCLC it was more than 100 µM; with HOP-92 NSCLC, more than 10 µM; in the experiment with IGROV1 ovarian, more than 31.6 µM; in the experiment with NCI-H460 lung, more than 31.6 µM; with OVCAR-8 ovarian it was more than 31.6 µM. Further, the TGI in the experiment on SK-OV-3 ovarian, with SW-620 colon, in the experiment on TK-10 renal and in the experiment on UO-31 renal was more than 31.6 µM each time.

`Cc1cc(Br)c2nsnc2c1[N+](=O)[O-]`: the GI50 was 1.76 µM in the experiment on EKVX NSCLC; 4.59 µM with HOP-62 NSCLC; 7.24 µM in the experiment with HOP-92 NSCLC; 1.65 µM in the experiment with IGROV1 ovarian; 3.15 µM with NCI-H460 lung; 3.18 µM in the experiment with OVCAR-8 ovarian. Besides, the GI50 in the experiment on SK-OV-3 ovarian is 13.5 µM; in the experiment with SW-620 colon, 2.15 µM; in the experiment on TK-10 renal, 3.72 µM; in the experiment with UO-31 renal, 2.05 µM. The TGI in the experiment on EKVX NSCLC stood at 5.73 µM; in the experiment with HOP-62 NSCLC, 16.3 µM; with HOP-92 NSCLC it was 22.1 µM; with IGROV1 ovarian, 3.62 µM; in the experiment on NCI-H460 lung it was 10.7 µM; in the experiment on OVCAR-8 ovarian, 12.1 µM. In addition, the TGI in the experiment on SK-OV-3 ovarian worked out at 26.4 µM; in the experiment on SW-620 colon, 15.1 µM; with TK-10 renal it was 12.4 µM; in the experiment on UO-31 renal, 8.23 µM.

As to `COC(=O)[C@H]1CC(=O)C=C2CCCC21` (some centres undefined), the TGI in the experiment on EKVX NSCLC, in the experiment with HOP-62 NSCLC, with HOP-92 NSCLC, with IGROV1 ovarian, in the experiment on NCI-H460 lung and with OVCAR-8 ovarian was more than 100 µM throughout. The TGI in the experiment with SK-OV-3 ovarian, in the experiment on SW-620 colon, with TK-10 renal and in the experiment with UO-31 renal was more than 100 µM throughout.

In the case of `O=[N+]([O-])c1ccc(N/N=C/c2ccccc2O)nc1`, the GI50 with EKVX NSCLC was 3.58 µM; in the experiment on HOP-62 NSCLC, 4.5 µM; in the experiment with HOP-92 NSCLC it was 3.74 µM; with IGROV1 ovarian, 2.7 µM; with NCI-H460 lung, 1.02 µM; with OVCAR-8 ovarian, 0.407 µM. Moreover, the GI50 with SK-OV-3 ovarian was 2.54 µM; in the experiment with SW-620 colon, 1.14 µM; in the experiment with TK-10 renal it was 3.43 µM; in the experiment with UO-31 renal it was 0.623 µM. Also, the TGI in the experiment on EKVX NSCLC was more than 100 µM; in the experiment on HOP-62 NSCLC, more than 100 µM; in the experiment on HOP-92 NSCLC, more than 100 µM; in the experiment with IGROV1 ovarian it was more than 100 µM; in the experiment on NCI-H460 lung, more than 100 µM; in the experiment with OVCAR-8 ovarian, 51.2 µM. Also, the TGI with SK-OV-3 ovarian, with SW-620 colon, with TK-10 renal and with UO-31 renal was more than 100 µM throughout.

For the molecule `O=C1NC(=O)C(N2CCc3ccccc32)=C1c1ccc(Cl)cc1`, the GI50 with EKVX NSCLC is more than 24.1 µM; with HOP-62 NSCLC, more than 25 µM; in the experiment on HOP-92 NSCLC, 6.38 µM; with IGROV1 ovarian it was more than 25 µM; in the experiment on NCI-H460 lung, more than 25 µM; in the experiment on OVCAR-8 ovarian it was more than 25 µM. The GI50 in the experiment on SK-OV-3 ovarian is more than 25 µM; in the experiment with SW-620 colon, more than 25 µM; with TK-10 renal it was more than 25 µM; with UO-31 renal it was more than 17.3 µM. The TGI with EKVX NSCLC, in the experiment with HOP-62 NSCLC, in the experiment on HOP-92 NSCLC, in the experiment on IGROV1 ovarian, with NCI-H460 lung and in the experiment on OVCAR-8 ovarian was more than 25 µM throughout. Further, the TGI in the experiment on SK-OV-3 ovarian, in the experiment on SW-620 colon, in the experiment with TK-10 renal and in the experiment with UO-31 renal was more than 25 µM each time.

`O=C(O)CN(CC(=O)O)c1ccccc1`: the TGI in the experiment on EKVX NSCLC, in the experiment with HOP-62 NSCLC, in the experiment with HOP-92 NSCLC, in the experiment on IGROV1 ovarian, in the experiment on NCI-H460 lung and in the experiment with OVCAR-8 ovarian was more than 100 µM each time. Further, the TGI in the experiment on SK-OV-3 ovarian, in the experiment with SW-620 colon, in the experiment with TK-10 renal and with UO-31 renal was more than 100 µM throughout.

Consider `O=C(O)c1ccccc1-c1ccccc1C(=O)Nc1ccc2c(c1)Cc1ccccc1-2`, for which the TGI in the experiment with EKVX NSCLC is 54.8 µM; in the experiment on HOP-62 NSCLC it was more than 100 µM; in the experiment on HOP-92 NSCLC, more than 100 µM; in the experiment on IGROV1 ovarian it was more than 100 µM; in the experiment with NCI-H460 lung, 38.1 µM; in the experiment with OVCAR-8 ovarian, more than 100 µM. For the same molecule, the TGI in the experiment on SK-OV-3 ovarian, in the experiment on SW-620 colon, with TK-10 renal and in the experiment on UO-31 renal was more than 100 µM each time.

Turning to `CC[C@@]1(O)C(=O)OCc2c1cc1n(c2=O)Cc2cc3c(Cl)c4c(cc3nc2-1)OCO4`, the GI50 was 5.93 µM and 1.91 µM in the experiment on EKVX NSCLC; less than 0.001 µM in the experiment on HOP-62 NSCLC; less than 0.001 µM with HOP-92 NSCLC; 0.121 µM and 0.285 µM in the experiment on IGROV1 ovarian; less than 0.001 µM with NCI-H460 lung; less than 0.001 µM with OVCAR-8 ovarian. The GI50 in the experiment with SK-OV-3 ovarian was 0.00265 µM and 0.0176 µM; in the experiment on UO-31 renal, less than 0.001 µM. Besides, the TGI in the experiment on EKVX NSCLC is more than 100 µM; in the experiment with HOP-92 NSCLC, 0.0801 µM; in the experiment on IGROV1 ovarian, more than 100 µM; in the experiment with NCI-H460 lung, 0.279 µM and 0.382 µM; in the experiment with SW-620 colon it was more than 100 µM; with TK-10 renal it was 10.6 µM.

As for `CCOP(=O)(CCN1CCN(CCCCCOc2cc3c(cc2OC)C(=O)N2CCC[C@H]2C=N3)CC1)OCC`, the GI50 in the experiment on EKVX NSCLC is 19.5 µM; in the experiment on HOP-62 NSCLC it was 23 µM; in the experiment with HOP-92 NSCLC it was 12.6 µM; in the experiment with IGROV1 ovarian it was 2.74 µM; with NCI-H460 lung it was 6.14 µM; in the experiment on OVCAR-8 ovarian, 31.2 µM. Further, the GI50 in the experiment on SK-OV-3 ovarian was 23.9 µM; in the experiment with SW-620 colon it was 4.47 µM; with TK-10 renal, 22.8 µM; in the experiment with UO-31 renal, 17.7 µM. The TGI in the experiment with EKVX NSCLC was 47.8 µM; in the experiment with HOP-62 NSCLC, more than 100 µM; in the experiment on HOP-92 NSCLC, 94.9 µM; with IGROV1 ovarian, 18.7 µM; with NCI-H460 lung it was 46.1 µM; in the experiment on OVCAR-8 ovarian, more than 100 µM. The TGI in the experiment on SK-OV-3 ovarian was 99.8 µM; with SW-620 colon it was 30.5 µM; with TK-10 renal, more than 100 µM; in the experiment on UO-31 renal it was 44.8 µM.

Consider `O=C1C=CC(=O)c2c1cc1ccccc1c2O`, for which the TGI with EKVX NSCLC was determined as 22.8 µM; in the experiment on HOP-62 NSCLC it was 26.6 µM; with HOP-92 NSCLC it was 3.61 µM; in the experiment on IGROV1 ovarian, 15.6 µM; with NCI-H460 lung, 41.3 µM; in the experiment on OVCAR-8 ovarian it was 8.96 µM. The TGI with SK-OV-3 ovarian came to 34.3 µM; in the experiment with SW-620 colon it was 3.59 µM; in the experiment on TK-10 renal, 11 µM; in the experiment on UO-31 renal, 9.11 µM.

For `CCOC(=O)c1c(C(F)(F)F)n([O-])c2ccc(Cl)cc2[n+]1=O`, the GI50 in the experiment with EKVX NSCLC is 2.05 µM; in the experiment with HOP-62 NSCLC, 1.88 µM; in the experiment with HOP-92 NSCLC, 1.17 µM; in the experiment with IGROV1 ovarian, 1.85 µM; with NCI-H460 lung it was 2.05 µM; with OVCAR-8 ovarian, 2.06 µM. In addition, the GI50 in the experiment with SK-OV-3 ovarian is 4.14 µM; in the experiment with SW-620 colon, 1.87 µM; with TK-10 renal it was 1.6 µM; in the experiment on UO-31 renal it was 1.48 µM. Also, the TGI with EKVX NSCLC came to 5.14 µM; in the experiment with HOP-62 NSCLC, 3.47 µM; with HOP-92 NSCLC, 2.64 µM; with IGROV1 ovarian, 3.77 µM; with NCI-H460 lung it was 3.99 µM; in the experiment with OVCAR-8 ovarian, 3.9 µM. For the same molecule, the TGI was 16.1 µM in the experiment on SK-OV-3 ovarian, 3.74 µM in the experiment on SW-620 colon, 3.23 µM with TK-10 renal and 2.93 µM in the experiment on UO-31 renal.

Regarding `N#Cc1ccc(N2Cc3cc(Cl)ccc3OC3=C2C(=O)N(Cc2ccc(F)cc2)C3=O)cc1`, the GI50 with EKVX NSCLC was 1.08 µM; with HOP-62 NSCLC, 2.72 µM; in the experiment with HOP-92 NSCLC it was 0.58 µM; with IGROV1 ovarian, 0.804 µM; in the experiment with NCI-H460 lung, 1.02 µM; in the experiment with OVCAR-8 ovarian, 1.43 µM. In addition, the GI50 in the experiment on SK-OV-3 ovarian is 16.2 µM; in the experiment with SW-620 colon, 0.411 µM; in the experiment with TK-10 renal it was 0.567 µM; with UO-31 renal, 0.436 µM. The TGI in the experiment on EKVX NSCLC was 4.24 µM; in the experiment with HOP-62 NSCLC, 10.1 µM; in the experiment on HOP-92 NSCLC, 1.32 µM; in the experiment on IGROV1 ovarian, 2.14 µM; with NCI-H460 lung, 3.71 µM; with OVCAR-8 ovarian, 3.12 µM. Also, the TGI in the experiment on SK-OV-3 ovarian is 55.7 µM; with SW-620 colon, 1.02 µM; with TK-10 renal, 1.1 µM; in the experiment with UO-31 renal, 0.868 µM.
